Reference: patent publication US7105679B2, “Heteroatom containing tetracyclic derivatives as selective estrogen receptor modulators” (priority 2001, dated 2006)
“And” between values parts separate entries of the source, which are not always exact repeats. Equal values may be shown once. Read-outs that look alike come from different tables or passages of the source.

Columns and labels:
[1] = target: T1, human estrogen receptor α (Homo sapiens, UniProt P03372); experiment: Estrogen Receptor α Flash Plate Assay (binding of radiolabeled estrogen)
T1 construct: purchased Panvera
T1 sequence (P03372 1-595): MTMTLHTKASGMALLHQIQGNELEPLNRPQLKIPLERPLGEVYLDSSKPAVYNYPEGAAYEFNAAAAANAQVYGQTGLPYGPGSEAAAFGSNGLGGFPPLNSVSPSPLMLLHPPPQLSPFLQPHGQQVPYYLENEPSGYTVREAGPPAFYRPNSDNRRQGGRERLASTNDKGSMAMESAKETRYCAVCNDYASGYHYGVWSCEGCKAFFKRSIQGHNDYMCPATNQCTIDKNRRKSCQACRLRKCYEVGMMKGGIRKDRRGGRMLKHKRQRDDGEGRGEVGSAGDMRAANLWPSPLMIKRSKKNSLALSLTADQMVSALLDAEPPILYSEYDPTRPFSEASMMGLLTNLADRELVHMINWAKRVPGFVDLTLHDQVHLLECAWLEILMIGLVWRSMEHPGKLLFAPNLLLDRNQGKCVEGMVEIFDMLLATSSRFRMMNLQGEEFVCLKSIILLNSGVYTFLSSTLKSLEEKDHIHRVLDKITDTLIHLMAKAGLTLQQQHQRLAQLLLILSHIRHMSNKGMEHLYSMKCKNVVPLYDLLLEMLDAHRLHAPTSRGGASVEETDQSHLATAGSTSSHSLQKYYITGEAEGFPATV
Experimental: This assay monitors binding of radiolabeled estrogen to the estrogen receptor. It is performed on a BioMek 2000 (Beckman). Plates are read in a scintillation counter (Packard TopCount), with decreased counts an indication of binding of a compound to the receptor.
The plate was sealed and incubated at 4° C. overnight.
On day two, each well was washed three times with 200 μL PBS, pH 7.2, at room temperature. To each well was then added 98 μL radiolabeled estrogen (0.5 nM, which equals 6 nCi for a 120 Ci/mmol batch, Amersham), diluted in ESB and 5 mM dithiothreitol (DTT). To individual wells were then added 2.5 μL test compound diluted in 30% (v/v) dimethyl sulfoxide/50 mM HEPES, pH 7.5. The wells were mixed three times by aspiration, the plate sealed and incubated at room temperature for one hour. The wells were then counted for 1 min in a TopCount scintillation counter (Packard).

[2] = system: MCF-7 cells; experiment: MCF-7 Cell Proliferation Assay (14C-thymidine, agonist and antagonist mode); format: cell-based; conditions: number in brackets = number of tests, NA = no detected activity at test concentration; for EC50: MCF7, agonist mode
Experimental: This assay was run according to the procedure described by Welshons, et al., (Breast Cancer Res. Treat., 1987, 10(2), 169-75), with minor modification.
Briefly, MCF-7 cells (from Dr. C. Jordan, Northwestern University) were maintained in RPMI 1640 phenol red free medium (Gibco) in 10% FBS (Hyclone), supplemented with bovine insulin and non-essential amino acid (Sigma). The cells were initially treated with 4-hydoxyltamoxifen (10^−8 M) and let stand at 37° C. for 24 hours. Following this incubation with tamoxifen, the cells were treated with compounds at various concentrations.
Compounds to be tested in the agonist mode were added to the culture media at varying concentrations. Compounds to be treated in the antagonist mode were prepared similarly, and 10 nM 17β-estradiol was also added to the culture media. The cells were incubated for 24 hours at 37° C. Following this incubation, 0.1 μCi of ^14C-thymidine (56 mCi/mmol, Amersham) was added to the culture media and the cells were incubated for an additional 24 hours at 37° C. The cells were then washed twice with Hank's buffered salt solution (HBSS) (Gibco) and counted with a scintillation counter. The increase in the ^14C-thymidine in the compound treated cells relative to the vehicle control cells were reported as percent increase in cell proliferation.

[3] = system: Ishikawa cells; experiment: Alkaline Phosphatase Assay in Human Endometrial Ishikawa Cells (agonist and antagonist mode); format: cell-based; conditions: number in brackets = number of tests, NA = no detected activity at test concentration; for IC50: antagonist mode with 10 nM 17β-estradiol; for EC50: agonist mode
Experimental: This assay was run according to the procedure described by Albert et a., Cancer Res, […], 50(11), 330-6-10, with minor modification.
Ishikawa cells (from ATCC) were maintained in DMEM/F12 (1:1) phenol red free medium (Gibco) supplemented with 10% calf serum (Hyclone). 24 hours prior to testing, the medium was changed to DMEM/F12 (1:1) phenol red free containing 2% calf serum.
Compounds to be tested in the agonist mode were added to the culture media at varying concentrations. Compounds to be treated in the antagonist mode were prepared similarly, and 10 nM 17β-estradiol was also added to the culture media. The cells were then incubated at 37° C. for 3 days. On the fourth day, the media was remove, 1 volume of 1× Dilution Buffer (Clontech) was added to the well followed by addition of 1 volume of Assay Buffer (Clontech). The cells were then incubated at room temperature for 5 minutes. […] The cells were incubated at room temperature for 10 minutes and then quantified on a luminometer. The increase of chemiluminescence over vehicle control was used to calculate the increase in alkaline phosphatase activity.

[4] = flash plate binding, 0.5 nM radiolabeled estrogen, number in brackets = No. of determinations, NA = no detected activity at test concentration, read-out: Estrogen Receptor α in μM (No.)
[5] = antagonist mode with 10 nM 17β-estradiol
[6] = Homo sapiens, MCF7, antagonist mode with 10 nM 17β-estradiol

| Compound | IC50 [1, 4] | IC50 [2, 5] [nM] | IC50 [3] [nM] | IC50 ([3]; Homo sapiens) [nM] | IC50 [2, 6] [nM] | EC50 ([2]; Homo sapiens) [nM] | EC50 ([3]; Homo sapiens) [nM] | IC50 [1] |
| --- | --- | --- | --- | --- | --- | --- | --- | --- |
| CN(C)CCOc1ccc(C2Oc3cc(O)ccc3C3=C2c2ccccc2OCC3)cc1 (single isomer, unassigned) [Compound 147] | 0.18 µM | > 10000 | > 10000 |  |  |  |  |  |
| Oc1ccc2c(c1)OC(c1ccc(OCCN3CCCCCC3)cc1)C1=C2CCOc2ccccc21 (single isomer, unassigned) [Compound 155] | 0.088 µM | > 10000 | 3770 |  |  |  |  |  |
| c1ccc2c(c1)OC(c1ccc(OCCN3CCCCC3)cc1)C1=C2COc2ccccc21 (single isomer, unassigned) [Compound 170, 5R*-(−)-1-{2-[4-(5,11-Dihydro-chromeno[4,3-c]chromen-5-yl)-phenoxy]-ethyl}-piperidine] | 0.16 µM | ≥ 10000 | 2660 |  |  |  |  |  |
| CC(C)(C)C(=O)Oc1ccc2c(c1)OCC1=C2C(c2ccc(OCCN3CCCCC3)cc2)Oc2ccccc21 (single isomer, unassigned) [Compound 171, 2,2-Dimethyl-propionic acid 5S*-(+)-[4-(2-piperidin-1-yl-ethoxy)-phenyl]-5,11-dihydro-chromeno[4,3-c]chromen-2-yl ester] | 0.14 µM | 5100 |  | 56.7 |  |  |  |  |
| CC(C)(C)C(=O)Oc1ccc2c(c1)OCC1=C2C(c2ccc(OCCN3CCCCC3)cc2)Oc2ccccc21 (single isomer, unassigned) [Compound 172, 2,2-Dimethyl-propionic acid 5R*-(−)-[4-(2-piperidin-1-yl-ethoxy)-phenyl]-5,11-dihydro-chromeno[4,3-c]chromen-2-yl ester] | 0.26 µM | 2280 | 68.4 |  |  |  |  |  |
| COc1ccc2c(c1)O[C@@H](c1ccc(OCCN3CCCCC3)cc1)C1=C2COc2cc(OC)ccc21 (single isomer, unassigned) [Compound 173, 5S*-(+)-1-{2-[4-(2,8-Dimethoxy-5,11-dihydro-chromeno[4,3-c]chromen-5-yl)-phenoxy]-ethyl}-piperidine] | 0.17 µM |  |  | > 10000 | > 10000 |  |  |  |
| COc1ccc2c(c1)OCC1=C2C(c2ccc(OCCN3CCCCC3)cc2)Oc2cc(OC(=O)C(C)(C)C)ccc21 (single isomer, unassigned) [Compound 175] | 0.66 µM |  |  | 300 | 5000 |  |  |  |
| Oc1ccc2c(c1)OCCC1=C2C(c2ccc(OCCN3CCCCCC3)cc2)Oc2cc(F)ccc21 (single isomer, unassigned) [Compound 178] | 0.0064 µM and 0.0076 µM | 1480 | 125 |  |  |  |  |  |
| COc1ccc2c(c1)OCCC1=C2C(c2ccc(OCCN3CCCCC3)cc2)Oc2cc(O)ccc21 (single isomer, unassigned) [Compound 196, 2-Methoxy-5S*-(−)-[4-(2-piperidin-1-yl-ethoxy)-phenyl]-11,12-dihydro-5H-6,13-dioxa-benzo[3,4]cyclohepta[1,2-a]naphthalen-8-ol] | 0.055 µM | > 1000 | 229 |  |  |  |  |  |
| c1ccc2c(c1)O[C@@H](c1ccc(OCCN3CCCCC3)cc1)C1=C2COc2ccccc21 (stereo in doubt) [Compound 169, 5S*-(+)-1-{2-[4-(5,11-Dihydro-chromeno[4,3-c]chromen-5-yl)-phenoxy]-ethyl}-piperidine] | 0.072 µM | ≥ 10000 | 830 |  |  |  |  |  |
| CC(C)(C)C(=O)Oc1ccc2c(c1)OC(c1ccc(OCCN3CCCCC3)cc1)C1=C2COc2cc(OC(=O)C(C)(C)C)ccc21 (stereo not shown) [Compound 22, 2,2-Dimethyl-propionic acid, 8-(2,2-dimethyl-propionyloxy)-5-[4-(2-piperidin-1-yl-ethoxy)-phenyl]-5,11-dihydro-chromeno[4,3-c]chromen-2-yl ester] | 3.45 µM |  |  | 53.5 | 662 | > 10000 | > 10000 |  |
| CC(C)(C)C(=O)Oc1ccc2c(c1)OC(C)(c1ccc(OCCN3CCCCC3)cc1)C1=C2COc2cc(OC(=O)C(C)(C)C)ccc21 (stereo not shown) [Compound 41, 2,2-Dimethyl-propionic acid 8-(2,2-dimethyl-propionyloxy)-11-methyl-11-[4-(2-piperidin-1-yl-ethoxy)-phenyl]-5,11-dihydro-chromeno[4,3-c]chromen-2-yl ester] | 1.9 µM |  |  | 550 | > 10000 | > 10000 | > 10000 |  |
| Oc1ccc2c(c1)OCCC1=C2C(c2ccc(OCCN3CCCCCC3)cc2)Oc2cc(F)ccc21 (stereo not shown) [Compound 174, 5-[4-(2-Azepan-1-yl-ethoxy)-phenyl]-8-fluoro-11,12-dihydro-5H-6,13-dioxa-benzo[3,4]cyclohepta[1,2-a]naphthalen-2-ol] |  |  |  | 135 | 1740 |  |  | 0.0015 µM and 0.0013 µM |

Second part, the compound after the results:

| IC50 [1, 4] | IC50 [2, 5] [nM] | IC50 [3] [nM] | IC50 ([3]; Homo sapiens) [nM] | IC50 [2, 6] [nM] | EC50 ([2]; Homo sapiens) [nM] | EC50 ([3]; Homo sapiens) [nM] | IC50 [1] | Compound |
| --- | --- | --- | --- | --- | --- | --- | --- | --- |
| 0.015 µM | 1360 | 1020 |  |  |  |  |  | CN(C)CCOc1ccc(C2Oc3cc(O)ccc3C3=C2c2ccccc2OCC3)cc1 (single isomer, unassigned) [Compound 149] |
| 0.0086 µM | 2610 | 324 |  |  |  |  |  | Oc1ccc2c(c1)OCCC1=C2C(c2ccc(OCCN3CCCCCC3)cc2)Oc2ccccc21 (single isomer, unassigned) [Compound 152] |
| 0.0066 µM | 1270 | 509 |  |  |  |  |  | Oc1ccc2c(c1)OCCC1=C2C(c2ccc(OCCN3CCCCCC3)cc2)Oc2ccccc21 (single isomer, unassigned) [Compound 153] |
| 0.0042 µM | 1440 | 167 |  |  |  |  |  | Oc1ccc2c(c1)OC(c1ccc(OCCN3CCCCCC3)cc1)C1=C2CCOc2ccccc21 (single isomer, unassigned) [Compound 154] |
| 0.007 µM | 424 | 35 |  |  |  |  |  | CC(C)N(CCOc1ccc(C2Oc3cc(O)ccc3C3=C2c2ccc(O)cc2OCC3)cc1)C(C)C (single isomer, unassigned) [Compound 167] |
| 0.0042 µM | 220 | 287 |  |  |  |  |  | CC(C)N(CCOc1ccc(C2Oc3cc(O)ccc3C3=C2c2ccc(O)cc2OCC3)cc1)C(C)C (single isomer, unassigned) [Compound 168] |
| 0.04 µM | 3000 | 259 |  |  |  |  |  | Oc1ccc2c(c1)OCCC1=C2C(c2ccc(OCCN3CCCCCC3)cc2)Oc2cc(F)ccc21 (single isomer, unassigned) [Compound 177] |
| 0.0011 µM |  |  | 34 | 1340 |  |  |  | COc1ccc2c(c1)OCC1=C2[C@H](c2ccc(OCCN3CCCCC3)cc2)Oc2cc(O)ccc21 (single isomer, unassigned) [Compound 181, 8-Methoxy-11S*(−)-[4-(2-piperidin-1-yl-ethoxy)-phenyl]-5,11-dihydro-chromeno[4,3-c]chromen-2-ol] |
